Source: ChEMBL document CHEMBL5537166, “PROTACs Targeting BRM (SMARCA2) Afford Selective In Vivo Degradation over BRG1 (SMARCA4) and Are Active in BRG1 Mutant Xenograft Tumor Models” (J Med Chem, 2024)

Columns and labels:
NCI-H1944 = assay: Antiproliferative activity against BRM-dependent human NCI-H1944 cells assessed as growth inhibition incubated for 7 days by celltiter glo 2.0 assay; type: functional; conditions: NCI-H1944, 168 h, time 7 day
Calu-6 = assay: Antiproliferative activity against human Calu-6 cells assessed as growth inhibition incubated for 7 days by celltiter glo 2.0 assay; type: functional; conditions: Calu-6, 168 h, time 7 day
[1] = target: von Hippel-Lindau disease tumor suppressor/SWI/SNF-related matrix-associated actin-dependent regulator of chromatin subfamily A member 2 (Homo sapiens, UniProt P51531+P40337); assay: PROTAC activity at VHL/BRM in human SW1573 cells assessed as induction of […] incubated for 22 hrs by Western blotting analysis; type: cell-based
Sequence of von Hippel-Lindau disease tumor suppressor/SWI/SNF-related matrix-associated actin-dependent regulator of chromatin subfamily A member 2 (P51531 whole entry): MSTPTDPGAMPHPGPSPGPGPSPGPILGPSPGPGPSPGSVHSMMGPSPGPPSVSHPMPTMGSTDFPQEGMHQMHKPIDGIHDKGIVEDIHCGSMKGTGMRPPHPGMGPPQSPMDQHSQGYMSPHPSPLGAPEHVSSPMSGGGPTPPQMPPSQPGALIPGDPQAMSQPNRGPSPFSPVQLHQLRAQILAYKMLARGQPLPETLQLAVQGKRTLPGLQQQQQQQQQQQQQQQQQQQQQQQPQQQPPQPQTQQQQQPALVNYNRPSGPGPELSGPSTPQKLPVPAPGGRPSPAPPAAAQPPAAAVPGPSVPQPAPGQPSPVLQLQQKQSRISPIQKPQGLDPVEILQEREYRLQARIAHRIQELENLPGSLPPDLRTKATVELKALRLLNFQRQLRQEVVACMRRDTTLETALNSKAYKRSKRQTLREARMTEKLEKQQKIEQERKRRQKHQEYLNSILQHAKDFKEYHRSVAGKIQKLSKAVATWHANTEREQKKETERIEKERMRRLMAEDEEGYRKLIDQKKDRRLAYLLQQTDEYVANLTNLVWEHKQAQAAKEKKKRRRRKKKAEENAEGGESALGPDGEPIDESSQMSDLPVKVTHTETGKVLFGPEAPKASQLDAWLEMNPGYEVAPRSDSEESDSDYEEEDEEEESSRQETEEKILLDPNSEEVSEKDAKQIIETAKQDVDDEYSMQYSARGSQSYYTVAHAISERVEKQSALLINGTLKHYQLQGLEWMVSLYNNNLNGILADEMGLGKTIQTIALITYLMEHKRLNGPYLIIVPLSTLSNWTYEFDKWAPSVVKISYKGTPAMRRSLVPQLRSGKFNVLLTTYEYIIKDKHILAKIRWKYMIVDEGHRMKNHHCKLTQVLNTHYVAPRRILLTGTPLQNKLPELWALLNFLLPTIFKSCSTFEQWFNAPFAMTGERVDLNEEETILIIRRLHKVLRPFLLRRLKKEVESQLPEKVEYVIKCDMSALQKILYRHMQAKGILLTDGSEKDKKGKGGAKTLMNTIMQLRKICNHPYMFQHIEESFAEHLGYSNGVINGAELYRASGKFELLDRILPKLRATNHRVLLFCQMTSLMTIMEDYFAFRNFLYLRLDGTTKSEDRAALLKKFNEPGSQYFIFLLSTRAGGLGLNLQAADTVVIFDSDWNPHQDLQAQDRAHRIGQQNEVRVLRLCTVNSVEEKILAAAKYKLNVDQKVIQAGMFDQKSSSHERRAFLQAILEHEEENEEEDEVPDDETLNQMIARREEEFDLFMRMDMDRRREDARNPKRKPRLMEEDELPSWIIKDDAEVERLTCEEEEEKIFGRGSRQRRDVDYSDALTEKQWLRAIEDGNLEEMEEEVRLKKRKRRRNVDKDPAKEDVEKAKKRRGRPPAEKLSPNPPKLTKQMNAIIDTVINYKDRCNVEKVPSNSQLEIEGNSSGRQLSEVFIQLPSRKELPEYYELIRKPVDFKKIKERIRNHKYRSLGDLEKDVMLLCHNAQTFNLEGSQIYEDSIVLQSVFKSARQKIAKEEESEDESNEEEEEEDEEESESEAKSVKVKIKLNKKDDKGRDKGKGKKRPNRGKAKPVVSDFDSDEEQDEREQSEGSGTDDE
Sequence of von Hippel-Lindau disease tumor suppressor/SWI/SNF-related matrix-associated actin-dependent regulator of chromatin subfamily A member 2 (P40337 whole entry): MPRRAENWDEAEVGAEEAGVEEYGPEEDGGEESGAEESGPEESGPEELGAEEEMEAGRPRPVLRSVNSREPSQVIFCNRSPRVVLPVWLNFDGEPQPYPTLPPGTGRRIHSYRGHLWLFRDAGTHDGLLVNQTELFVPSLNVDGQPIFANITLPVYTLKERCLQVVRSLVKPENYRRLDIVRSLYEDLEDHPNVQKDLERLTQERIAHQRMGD

[2] = target: von Hippel-Lindau disease tumor suppressor/SWI/SNF-related matrix-associated actin-dependent regulator of chromatin subfamily A member 4 (Homo sapiens, UniProt P51532+P40337); assay: PROTAC activity at VHL/ BRG1 in human SW1573 cells assessed as induction of BRG1 degradation incubated for 22 hrs by Western blotting analysis; type: cell-based
Sequence of von Hippel-Lindau disease tumor suppressor/SWI/SNF-related matrix-associated actin-dependent regulator of chromatin subfamily A member 4 (P51532 whole entry): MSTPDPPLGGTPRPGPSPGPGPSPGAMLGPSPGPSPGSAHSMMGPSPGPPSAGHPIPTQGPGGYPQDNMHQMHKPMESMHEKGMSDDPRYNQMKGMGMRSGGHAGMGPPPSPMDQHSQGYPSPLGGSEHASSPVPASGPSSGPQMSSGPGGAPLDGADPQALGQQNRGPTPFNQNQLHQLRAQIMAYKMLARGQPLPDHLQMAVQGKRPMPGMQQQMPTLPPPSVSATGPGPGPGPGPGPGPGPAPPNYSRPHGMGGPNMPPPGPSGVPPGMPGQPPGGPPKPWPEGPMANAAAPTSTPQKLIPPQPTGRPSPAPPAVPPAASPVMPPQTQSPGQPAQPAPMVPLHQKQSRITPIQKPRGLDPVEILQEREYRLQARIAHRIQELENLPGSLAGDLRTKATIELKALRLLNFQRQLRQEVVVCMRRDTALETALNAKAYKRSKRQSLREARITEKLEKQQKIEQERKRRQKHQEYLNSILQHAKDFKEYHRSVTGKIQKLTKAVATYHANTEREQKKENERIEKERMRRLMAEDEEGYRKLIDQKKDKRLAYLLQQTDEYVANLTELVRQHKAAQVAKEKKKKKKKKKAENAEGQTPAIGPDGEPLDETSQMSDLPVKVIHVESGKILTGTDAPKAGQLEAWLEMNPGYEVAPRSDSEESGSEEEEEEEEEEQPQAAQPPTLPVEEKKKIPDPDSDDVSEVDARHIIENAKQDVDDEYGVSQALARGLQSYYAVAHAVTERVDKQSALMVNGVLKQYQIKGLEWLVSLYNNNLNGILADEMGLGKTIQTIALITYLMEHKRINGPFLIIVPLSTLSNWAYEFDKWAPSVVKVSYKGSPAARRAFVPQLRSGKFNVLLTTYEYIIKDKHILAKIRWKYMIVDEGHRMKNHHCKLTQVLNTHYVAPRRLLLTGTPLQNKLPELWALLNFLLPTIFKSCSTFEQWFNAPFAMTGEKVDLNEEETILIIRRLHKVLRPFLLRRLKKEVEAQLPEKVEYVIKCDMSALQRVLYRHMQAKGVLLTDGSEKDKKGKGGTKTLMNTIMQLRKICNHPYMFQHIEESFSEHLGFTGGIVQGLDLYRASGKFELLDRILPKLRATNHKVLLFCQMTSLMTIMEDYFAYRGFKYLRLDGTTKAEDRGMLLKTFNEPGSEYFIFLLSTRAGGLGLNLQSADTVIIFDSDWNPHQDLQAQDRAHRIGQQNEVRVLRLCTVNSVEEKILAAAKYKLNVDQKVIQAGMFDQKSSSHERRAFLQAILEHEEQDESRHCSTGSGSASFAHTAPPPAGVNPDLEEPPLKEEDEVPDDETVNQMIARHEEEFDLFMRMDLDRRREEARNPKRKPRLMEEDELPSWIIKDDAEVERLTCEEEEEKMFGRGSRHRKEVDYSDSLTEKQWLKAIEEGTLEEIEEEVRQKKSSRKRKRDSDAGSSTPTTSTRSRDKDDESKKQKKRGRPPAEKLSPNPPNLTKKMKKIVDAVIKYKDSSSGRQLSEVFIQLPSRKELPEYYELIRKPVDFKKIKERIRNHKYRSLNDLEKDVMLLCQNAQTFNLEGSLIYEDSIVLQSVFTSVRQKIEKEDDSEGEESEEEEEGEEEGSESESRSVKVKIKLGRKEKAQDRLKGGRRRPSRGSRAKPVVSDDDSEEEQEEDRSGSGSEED
Sequence of von Hippel-Lindau disease tumor suppressor/SWI/SNF-related matrix-associated actin-dependent regulator of chromatin subfamily A member 4 (P40337 whole entry): as the sequence (P40337 whole entry) above

[3] = Metabolic stability in human liver microsome assessed as hepatic extraction ratio measured upto 60 mins by LC-MS/MS analysis; type: ADME; conditions: liver microsomes
[4] = Plasma protein binding in mouse incubated for 15 mins by LC-MS/MS analysis; type: ADME, cell-free; conditions: read-out: PPB (converted)
[5] = Clearance in mouse at 1 mg/kg, iv measured upto 60 mins by LC-MS/MS analysis; type: ADME, organism-based; conditions: in vivo, 1 h
[6] = Half life in mouse at 1 mg/kg, iv measured upto 60 mins by LC-MS/MS analysis; type: ADME, organism-based; conditions: in vivo
Homo sapiens = species: Homo sapiens; assay: Ratio of DC50 for VHL/ BRG1 in human SW1573 cells to DC50 for VHL/BRM in human SW1573 cells; type: cell-based
[7] = Drug concentration in mouse plasma measured for 24 hrs; type: ADME, cell-free
[8] = target: T1, SWI/SNF-related matrix-associated actin-dependent regulator of chromatin subfamily A member 2 (Homo sapiens, UniProt P51531); assay: Binding affinity to his-tagged BRM bromodomain (unknown origin) assessed as dissociation constant
T1 sequence (P51531 whole entry): as the sequence (P51531 whole entry) above

Mus musculus [9] = assay: In-vivo PROTAC activity at BRM/VHL in CD-1 mouse xenografted with human HCC2302 cells at 20 mg/kg, iv measured for 96 hrs; type: functional
Mus musculus [10] = assay: In-vivo PROTAC activity at BRM/VHL in CD-1 mouse xenografted with Murine stromal cell line at 20 mg/kg, iv measured for 96 hrs; type: functional
[11] = Drug concentration in mouse tumor at 20 mg/kg, ip measured for 96 hrs; type: ADME, organism-based, Neoplasm; conditions: read-out: Ct
[12] = target: T1, SWI/SNF-related matrix-associated actin-dependent regulator of chromatin subfamily A member 2; assay: Binding affinity to his-tagged BRM bromodomain (unknown origin) by alpha-LISA assay

SMILES | GI50 (NCI-H1944) [nM] | GI50 (Calu-6) [nM] | DC50 [1] [nM] | DC50 [2] [nM] | hepatic extraction ratio at 1 h [3] | fraction unbound at 0.25 h [4] | clearance [5] [mL/min/kg] | half-life [6] [h] | Ratio (Homo sapiens) | concentration at 24 h [7] [nM] | Kd [8] [nM] | Activity (Mus musculus [9]) [%] | Activity (Mus musculus [10]) [%] | concentration at 96 h [11] [ng/g] | IC50 [12] [nM]
Cc1ncsc1-c1ccc([C@H](C)NC(=O)[C@@H]2C[C@@H](O)CN2C(=O)[C@@H](c2cc(OCC#Cc3ccc(O[C@H]4C[C@H](Oc5cc(N6C7CCC6CN(c6cc(-c8ccccc8O)nnc6N)C7)ccn5)C4)cn3)no2)C(C)C)cc1 | 0.7 | 28 | 27 | 5.1 | 0.15 | 0.016 | 22 | 1.5 | 19 | 129 | – | – | – | – | –
Cc1ncsc1-c1ccc([C@H](C)NC(=O)[C@@H]2C[C@@H](O)CN2C(=O)[C@@H](c2cc(OCCN3CCC(O[C@H]4C[C@H](Oc5cc(N6C7CCC6CN(c6cc(-c8ccccc8)nnc6N)C7)ccn5)C4)CC3)no2)C(C)C)cc1 | > 5000 | – | – | – | – | – | – | – | – | – | 10300 | – | – | – | –
Cc1ncsc1-c1ccc([C@H](C)NC(=O)[C@@H]2C[C@@H](O)CN2C(=O)[C@@H](c2cc(N3CCN(CCN4CCC(O[C@H]5C[C@H](Oc6cc(N7C8CCC7CN(c7cc(-c9ccccc9O)nnc7N)C8)ccn6)C5)CC4)CC3)no2)C(C)C)cc1 | 1.3 | 11 | 0.085 | 3.2 | 0.4 | 0.034 | 9.6 | 13 | 38 | 108 | – | 56 | 28 | 840 | –
Cc1ncsc1-c1ccc([C@H](C)NC(=O)[C@@H]2C[C@H](O)CN2C(=O)[C@@H](c2cc(N3CCC(CN4CCC(O[C@H]5C[C@H](Oc6cc(N7C8CCC7CN(c7cc(-c9ccccc9O)nnc7N)C8)ccn6)C5)CC4)CC3)no2)C(C)C)cc1 | > 300 | – | – | – | – | – | – | – | – | – | – | – | – | – | –
COc1cc(N2CCN(c3cc(-c4ccccc4O)nnc3N)CC2)ccn1 | > 300 | > 300 | – | – | – | – | – | – | – | – | – | – | – | – | 18
Cc1ncsc1-c1ccc([C@H](C)NC(=O)[C@@H]2C[C@@H](O)CN2C(=O)[C@@H](c2cc(OCCN3CCN(CCOc4cc(N5C6CCC5CN(c5cc(-c7ccccc7O)nnc5N)C6)ccn4)[C@H](C)C3)no2)C(C)C)cc1 | 0.26 | 12 | 0.055 | 0.71 | 0.83 | 0.015 | – | – | 13 | 22 | – | 0 | 0 | 76 | –
Cc1ncsc1-c1ccc(CNC(=O)[C@@H]2C[C@@H](O)CN2C(=O)[C@@H](c2cc(OCCOCCOCCOc3cc(N4C5CCC4CN(c4cc(-c6ccccc6O)nnc4N)C5)ccn3)no2)C(C)C)cc1 | – | – | 0.76 | 5.9 | – | – | – | – | 2.2 | – | – | – | – | – | –
Cc1ncsc1-c1ccc([C@H](C)NC(=O)[C@@H]2C[C@@H](O)CN2C(=O)[C@@H](c2cc(N3CCC(CN4CCC(Oc5cc(N6C7CCC6CN(c6cc(-c8ccccc8O)nnc6N)C7)ccn5)CC4)CC3)no2)C(C)C)cc1 | 0.23 | 3.7 | 0.053 | 0.99 | 0.41 | 0.006 | 6.7 | 6.7 | – | – | – | 83 | 59 | 774 | –
Cc1ncsc1-c1ccc([C@H](C)NC(=O)[C@@H]2C[C@H](O)CN2C(=O)[C@@H](c2cc(OCCN3CCC(O[C@H]4C[C@H](Oc5cc(N6C7CCC6CN(c6cc(-c8ccccc8O)nnc6N)C7)ccn5)C4)CC3)no2)C(C)C)cc1 | > 300 | – | – | – | – | – | – | – | – | – | – | – | – | – | –
Cc1ncsc1-c1ccc([C@H](C)NC(=O)[C@@H]2C[C@@H](O)CN2C(=O)[C@@H](c2cc(N3CCC(CN4CCC(O[C@H]5C[C@H](Oc6cc(N7C8CCC7CN(c7cc(-c9ccccc9)nnc7N)C8)ccn6)C5)CC4)CC3)no2)C(C)C)cc1 | > 5000 | – | – | – | – | – | – | – | – | – | 8540 | – | – | – | –
Cc1ncsc1-c1ccc([C@H](C)NC(=O)[C@@H]2C[C@@H](O)CN2C(=O)[C@@H](c2cc(N3CCN(C[C@H]4C[C@H](Oc5cc(N6C7CCC6CN(c6cc(-c8ccccc8O)nnc6N)C7)ccn5)C4)CC3)no2)C(C)C)cc1 | 0.45 | 6.8 | 0.09 | 1.3 | 0.27 | 0.011 | 11 | 3.7 | – | – | – | 87 | 53 | 75 | –
Cc1ncsc1-c1ccc(CNC(=O)[C@@H]2C[C@@H](O)CN2C(=O)[C@@H](NC(=O)COCCOCCOCCOc2cc(N3C4CCC3CN(c3cc(-c5ccccc5O)nnc3N)C4)ccn2)C(C)(C)C)cc1 | – | – | 32 | 703 | – | – | – | – | 7.8 | – | – | – | – | – | –
COCCOc1cc(N2C3CCC2CN(c2cc(-c4ccccc4O)nnc2N)C3)ccn1 | – | – | – | – | – | – | – | – | – | – | – | – | – | – | 2.7
Cc1ncsc1-c1ccc(CNC(=O)[C@@H]2C[C@@H](O)CN2C(=O)[C@@H](c2cc(OCCN3CCN(CCOc4cc(N5C6CCC5CN(c5cc(-c7ccccc7O)nnc5N)C6)ccn4)CC3)no2)C(C)C)cc1 | 3.6 | 62 | 0.39 | 9.5 | 0.65 | 0.015 | – | – | – | – | – | – | – | – | –
COc1cc(N2C3CCC2CN(c2cc(-c4ccccc4O)nnc2N)C3)ccn1 | > 300 | > 300 | – | – | – | – | – | – | – | – | – | – | – | – | 1.2
Cc1ncsc1-c1ccc([C@H](C)NC(=O)[C@@H]2C[C@@H](O)CN2C(=O)[C@@H](c2cc(OCCN3CCN(CCOc4cc(N5C6CCC5CN(c5cc(-c7ccccc7O)nnc5N)C6)ccn4)C[C@@H]3C)no2)C(C)C)cc1 | 0.72 | 38 | 0.11 | 2.7 | 0.83 | – | – | – | 25 | – | – | – | – | – | –
Cc1ncsc1-c1ccc([C@H](C)NC(=O)[C@@H]2C[C@@H](O)CN2C(=O)[C@@H](c2cc(N3CCN(CC4CCN(C[C@H]5C[C@H](Oc6cc(N7C8CCC7CN(c7cc(-c9ccccc9O)nnc7N)C8)ccn6)C5)CC4)CC3)no2)C(C)C)cc1 | 0.72 | 10 | 0.062 | 1.4 | 0.15 | 0.035 | 12 | 17 | – | – | – | 95 | 83 | – | –
Cc1ncsc1-c1ccc([C@H](C)NC(=O)[C@@H]2C[C@@H](O)CN2C(=O)[C@@H](c2cc(N3CCC(O[C@H]4C[C@H](Oc5cc(N6C7CCC6CN(c6cc(-c8ccccc8O)nnc6N)C7)ccn5)C4)CC3)no2)C(C)C)cc1 | 0.3 | 4.4 | 0.14 | 1.8 | 0.14 | 0.019 | 9.2 | 1.4 | 13 | 112 | – | 70 | 22 | 175 | –
